From US4904672A, “Derivatives of 3-hydroxyazabenzo[b]thiophene useful as 5-lipoxygenase inhibitors” (Merck & Co., Inc., priority 1988, dated 1990)

Experiments:
PMN 5-lipoxygenase = target: T1, PMN 5-lipoxygenase (Rattus norvegicus, UniProt P12527); test: Inhibition of PMN 5-lipoxygenase in the rat (LTB4 by RIA, A23187-stimulated PMN); format: cell-based, rat (male Sprague-Dawley); conditions: for inhibition at 1000 µg/mL: dose 1 mg/ml; for inhibition at 10 µg/mL: dose 0.01 mg/ml; for inhibition at 30 µg/mL: dose 0.03 mg/ml
T1 sequence (P12527 1-673): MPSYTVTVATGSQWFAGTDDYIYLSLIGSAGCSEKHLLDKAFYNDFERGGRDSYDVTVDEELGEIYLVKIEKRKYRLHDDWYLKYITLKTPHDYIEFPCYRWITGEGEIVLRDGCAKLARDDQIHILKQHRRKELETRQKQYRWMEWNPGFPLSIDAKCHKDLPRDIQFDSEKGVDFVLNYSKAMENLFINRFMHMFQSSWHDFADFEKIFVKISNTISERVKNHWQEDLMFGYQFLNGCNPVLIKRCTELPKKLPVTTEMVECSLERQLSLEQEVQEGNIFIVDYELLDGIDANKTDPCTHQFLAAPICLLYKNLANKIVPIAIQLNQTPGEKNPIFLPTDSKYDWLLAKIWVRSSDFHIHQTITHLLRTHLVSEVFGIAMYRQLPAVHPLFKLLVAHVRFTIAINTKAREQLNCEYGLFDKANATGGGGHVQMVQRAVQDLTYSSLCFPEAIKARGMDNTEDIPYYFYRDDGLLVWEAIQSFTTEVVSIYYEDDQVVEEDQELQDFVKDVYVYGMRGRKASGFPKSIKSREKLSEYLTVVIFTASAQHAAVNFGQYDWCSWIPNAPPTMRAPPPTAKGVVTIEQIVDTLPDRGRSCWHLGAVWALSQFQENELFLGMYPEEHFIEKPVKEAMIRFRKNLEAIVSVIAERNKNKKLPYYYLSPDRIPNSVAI
Method: 2. Inhibition of PMN 5-lipoxygenase in the rat Methods
Male Sprague-Dawley rates under ether anesthesia were injected i.p. with 8 mls of 12% aqueous sodium caseinate. After 15-24 hours the animals were sacrificed with CO2 and the peritoneal cavities were lavaged with Eagles MEM with Earles salts and containing L-glutamine and 30 mM HEPES. The pH was adjusted to 7.4. The lavage fluid was centrifuged for 5 minutes at 350×g at room temperature. The cells were resuspended in fresh medium and filtered through lens paper. The cells were pelleted again and reconstituted to concentration of 1×10^7 cells/ml with fresh medium.
The experiments were run as follows: 0.5μ of test compound in DMSO or 0.5 μl DMSO alone was added to reaction tubes. 0.5 ml aliquots of the stirred PMN suspension maintained at 37° C. were then added. After 2 minutes, 0.5 μl of 10 mM A23187 (final concentration=10 μM) or 0.5 μl of DMSO was added and allowed to incubate for 4 additional minutes at 37° C. The reaction was stopped by the addition of 0.5 ml of cold methanol. The precipitated proteins were removed by centrifugation and the supernatant fluid was analyzed via RIA or HPLC.
Radioimmunoassay determinations of LTB4
Radioimmunoassays were performed using the dextran-coated charcoal binding method as described by J. L. Humes in Methods for Studying Mononuclear Phagocytes (Eds. D. Adams et al.) p. 641, Academic Press, N.Y. (1981).
Aliquots, 2 μl, of the supernatant fluids were added to assay tubes and incubated for 10 minutes at 37° C. to remove methanol. Fifty μl of tissue culture medium M-199 containing 1 percent heat-inactivated-porcine serum was then added to each tube. Standard amounts of LTB4 were also prepared in this medium so that 50 μl aliquots contained 25-1000 pg. Antisera to LTB4 was diluted 1:3000 with 10 mM potassium phosphate, pH 7.3 containing 1 mM ethylenediaminetetracetic acid and 0.25 mM thimerasol (PET buffer). Aliquots, 100 μl, of the diluted antisera were added to both standard and unknown tubes and incubated at room temperature for 0.5 hour. (5,6,8,9,11,12,14,15-^3 H)-LTB4 (Amersham, 150 Ci/mMol) was diluted with PET to a concentration of 1 nCi/ml. Aliquots, 100 μl , were added and the mixture incubated for 2 hours at room temperature or alternatively overnight at 4° C. One ml of dextran-coated charcoal solution is added to all tubes. After centrifugation for 10 minutes at 1000×g the radioactivity in the supernatant fluid was determined.
The dextran-coated charcoal removes the unbound ^3 H-LTB4. Therefore in this procedure the antibody-bound-^3 H-LTB4 is measured. The RIA^4 determinations are performed on single samples.

[1] = system: Brewer's yeast-induced hyperalgesia (pain response); test: Brewer's Yeast Hyperalgesia Assay in the rat; format: in vivo, rat (female Sprague-Dawley); conditions: 3 mg/kg p.o.
Method: In this assay, which is sensitive to inhibition by lipoxygenase and cyclooxygenase inhibitors, compounds of formula I reduced the pain response induced by Brewer's yeast (Table 1a).
Groups of 10 female Sprague-Dawley rats, weighing 35-50 grams (Charles River Breeding Laboratories), were fasted overnight prior to testing. For each animal, 0.1 ml of the edema-inducing Brewer's yeast suspension (5% homogenate in physiological saline) was injected into the right hindpaw. Pain threshold was measured by applying pressure to the plantar surface of the hindpaw by means of a compressed air driven piston with a 2 mm. tip. Testing was carried out 3, 4, and 5 hours after the yeast injection. Compounds, prepared as homogenates in either 1% methylcellulose or aqueous vehicle, were administered orally 60 minutes before testing. A group of vehicle treated control animals was included in each experiment. Squeak pressure thresholds were measured and recorded for the compound and vehicle-treated groups of rats 3, 4, and 5 hours after administration of the Brewer's yeast (60 minutes after compound treatment). The estimation of analgesia was as follows: 1. the mean response pressure for the daily vehicle control group in the normal and inflammed foot was calculated; 2. for each compound treatment group, the number of animals with response pressures equal to or greater than 25 mm Hg was noted. These animals were considered to be analgesic.

| inhibition at 37 µg/mL (PMN 5-lipoxygenase; dose 0.037 mg/ml) [%] | inhibition at 100 µg/mL (PMN 5-lipoxygenase; dose 0.1 mg/ml) [%] | inhibition at 300 µg/mL (PMN 5-lipoxygenase; dose 0.3 mg/ml) [%] | inhibition at 1000 µg/mL (PMN 5-lipoxygenase) [%] | Compound | other results |
| --- | --- | --- | --- | --- | --- |
| 24 | 100 |  |  | COc1ccc(-c2sc3ncccc3c2O)cc1 [N=7, R=H, X1=H, X2=p-OCH3] |  |
|  |  |  |  | COc1ccc2c(OC(C)=O)c(-c3ccccc3)sc2n1 [R=(CO)CH3, X1=6-OCH3, X2=H] | % Inhibition (yeast hyperalgesia) [1]: 60% |
|  | 61 | 100 | 100 | CC(=O)Oc1c(-c2ccc(C(F)(F)F)cc2)sc2ncccc12 [N=7, R=(CO)CH3, X1=H, X2=p-CF3] |  |
| 22 | 32 |  | 100 | CC(=O)Oc1c(-c2ccccc2)sc2nccc(Cl)c12 [N=7, R=(CO)CH3, X1=4-Cl, X2=H] |  |
|  | 21 | 73 | 100 | COc1ccc(-c2sc3cccnc3c2OC(C)=O)cc1 [N=4, R=(CO)CH3, X1=H, X2=p-OCH3, 3-Acetyloxy-2-(4-methoxyphenyl)-4-azabenzo[b]thiophene] |  |
| 22 | 80 | 99 |  | COc1ccc(-c2sc3ccncc3c2OC(C)=O)cc1 [N=5, R=(CO)CH3, X1=H, X2=p-OCH3, 3-Acetyloxy-5-aza-2-(4-methoxyphenyl)benzo[b]thiophene] | % Inhibition (PMN 5-lipoxygenase) (PMN 5-lipoxygenase; dose 0.1 mg/ml): 60%; % Inhibition (PMN 5-lipoxygenase) (PMN 5-lipoxygenase; dose 0.3 mg/ml): 100% |
|  |  |  |  | COc1ccc(-c2sc3ncccc3c2O)cc1 [R=H, X1=H, X2=p-OCH3] | % Inhibition (yeast hyperalgesia) [1]: 60% |
| 88 | 99 | 100 |  | Oc1c(-c2ccc(F)cc2)sc2ncccc12 [N=7, R=H, X1=H, X2=p-F] | inhibition at 10 µg/mL (PMN 5-lipoxygenase): 32% |
|  | 43 | 90 | 99 | Cc1cc2sc(-c3ccccc3)c(O)c2c(C)n1 [N=5, R=H, X1=4-CH3,6-CH3, X2=H] |  |
|  | 79 | 100 |  | COc1ccc(-c2sc3cnccc3c2O)cc1 [N=6, R=H, X1=H, X2=p-OCH3, 3-Hydroxy-2-(4-methoxyphenyl)-6-azabenzo[b]thiophene] | inhibition at 30 µg/mL (PMN 5-lipoxygenase): 45% |
| 58 | 97 | 100 |  | CC(=O)Oc1c(-c2ccccc2)sc2ccncc12 [N=5, R=(CO)CH3, X1=H, X2=H, 3-Acetyloxy-5-aza-2-phenylbenzo[b]thiophene] |  |
| 52 | 97 | 100 |  | COc1cccc(-c2sc3ncccc3c2OC(C)=O)c1 [N=7, R=(CO)CH3, X1=H, X2=m-OCH3] |  |
|  | 33 | 49 | 90 | COc1ccc(-c2sc3c[n+]([O-])ccc3c2OC(C)=O)cc1 [drawing 25, N=6, R=(CO)CH3, X1=H] |  |
|  | 53 | 98 | 98 | CC(C)(C)c1ccc2c(O)c(-c3ccccc3)sc2n1 [N=7, R=H, X1=t-Bu, X2=H, 6-(1,1-dimethylethyl)-3-hydroxy-2-phenyl-7-azabenzo[b]thiophene] |  |
|  | 39 | 94 | 98 | Oc1c(-c2cccnc2)sc2ncccc12 [drawing 24, N=7, R=H, X1=H, X2=H] | inhibition at 30 µg/mL (PMN 5-lipoxygenase): 0% |
|  |  | 100 |  | COc1ccc(-c2sc3ccncc3c2O)cc1 [N=5, R=H, X1=H, X2=p-OCH3, 5-Aza-3-hydroxy-2-(4-methoxyphenyl)-benzo[b]thiophene] | inhibition at 400 µg/mL (PMN 5-lipoxygenase; dose 0.4 mg/ml): 63% |
|  | 45 | 75 |  | COc1ccc(-c2sc3cc(C)nc(C)c3c2OC(C)=O)cc1 | inhibition at 30 µg/mL (PMN 5-lipoxygenase): 4% |
|  | 100 |  |  | Oc1c(-c2ccccc2)sc2ncccc12 [N=7, R=H, X1=H, X2=H, 3-Hydroxy-2-phenyl-7-azabenzo[b]thiophene] | inhibition at 12 µg/mL (PMN 5-lipoxygenase; dose 0.012 mg/ml): 32% |
| 49 | 100 |  |  | CC(=O)Oc1c(-c2ccc(F)cc2)sc2ncccc12 [N=7, R=(CO)CH3, X1=H, X2=p-F, 7-aza-3-acetyloxy-2-(4-fluorophenyl)-benzo[b]thiophene] | inhibition at 10 µg/mL (PMN 5-lipoxygenase): 24% |
|  |  |  |  | COCC(=O)Oc1c(-c2ccccc2)sc2ncccc12 [R=(CO)CH2 OCH3, X1=H, X2=H] | % Inhibition (yeast hyperalgesia) [1]: 50% |
|  | 63 | 82 | 100 | CC(=O)Oc1c(-c2ccccc2)sc2nc(Cl)ccc12 [N=7, R=(CO)CH3, X1=6-Cl, X2=H] |  |
|  |  |  |  | CC(=O)Oc1c(-c2ccccc2)sc2nc(Cl)ccc12 [R=(CO)CH3, X1=6-Cl, X2=H] | % Inhibition (yeast hyperalgesia) [1]: 40% |
| 39 | 77 | 100 |  | CC(=O)Oc1c(-c2ccc(C#N)cc2)sc2ncccc12 [N=7, R=(CO)CH3, X1=H, X2=p-CN] |  |
|  |  |  |  | CC(=O)Oc1c(-c2ccccc2)sc2ncccc12 [R=(CO)CH3, X1=H, X2=H, 7-aza-3-acetyloxy-2-phenyl-benzo[b]thiophene] | % Inhibition (yeast hyperalgesia) [1]: 60% |
| 95 | 100 |  |  | CC(=O)Oc1c(-c2ccccc2)sc2ncccc12 [N=7, R=(CO)CH3, X1=H, X2=H, 7-aza-3-acetyloxy-2-phenyl-benzo[b]thiophene] | inhibition at 10 µg/mL (PMN 5-lipoxygenase): 40% |
|  | 73 | 100 |  | COc1ccccc1-c1sc2ncccc2c1OC(C)=O [N=7, R=(CO)CH3, X1=H, X2=o-OCH3] | inhibition at 30 µg/mL (PMN 5-lipoxygenase): 33% |
|  | 100 | 100 |  | COc1cccc(-c2sc3ncccc3c2O)c1 [N=7, R=H, X1=H, X2=m-OCH3, 7-Aza-3-hydroxy-2-(3-methoxyphenyl)-benzo[b]thiophene] | inhibition at 30 µg/mL (PMN 5-lipoxygenase): 76% |
| 59 | 100 |  |  | COc1ccc(-c2sc3ncccc3c2OC(C)=O)cc1 [N=7, R=(CO)CH3, X1=H, X2=p-OCH3] | % Inhibition (PMN 5-lipoxygenase) (PMN 5-lipoxygenase; dose 0.037 mg/ml): 70% |

| Compound | inhibition at 37 µg/mL (PMN 5-lipoxygenase; dose 0.037 mg/ml) [%] | inhibition at 100 µg/mL (PMN 5-lipoxygenase; dose 0.1 mg/ml) [%] | inhibition at 300 µg/mL (PMN 5-lipoxygenase; dose 0.3 mg/ml) [%] | inhibition at 1000 µg/mL (PMN 5-lipoxygenase) [%] | other results |
| --- | --- | --- | --- | --- | --- |
| CC(=O)Oc1c(-c2ccccc2)sc2nc(C(C)(C)C)ccc12 [N=7, R=(CO)CH3, X1=t-Bu, X2=H, 3-Acetoxy-6-(1,1-dimethylethyl)-2-phenyl-7-azabenzo[b]thiophene] |  | 34 | 70 | 95 | inhibition at 30 µg/mL (PMN 5-lipoxygenase): 23% |
